Test results as given in patent publication US10874669B2 (WAYNE STATE UNIVERSITY, priority 2018, dated 2020).
Entries after “also recorded” stand apart in the source; their conditions may differ. Where two headings read alike, the source gives them in different places.

Key:
cloned rat D2L receptors = cloned rat D2L receptors (Rattus norvegicus (Rat), UniProt P61169); test: [3H]spiroperidol competition binding, rat D2L receptors in HEK-293 cells; settings: values of Table 3; for Ki: rat D2 in HEK-293 cells; for D2/D3: ratio of Ki values
Sequence of cloned rat D2L receptors (P61169 whole entry): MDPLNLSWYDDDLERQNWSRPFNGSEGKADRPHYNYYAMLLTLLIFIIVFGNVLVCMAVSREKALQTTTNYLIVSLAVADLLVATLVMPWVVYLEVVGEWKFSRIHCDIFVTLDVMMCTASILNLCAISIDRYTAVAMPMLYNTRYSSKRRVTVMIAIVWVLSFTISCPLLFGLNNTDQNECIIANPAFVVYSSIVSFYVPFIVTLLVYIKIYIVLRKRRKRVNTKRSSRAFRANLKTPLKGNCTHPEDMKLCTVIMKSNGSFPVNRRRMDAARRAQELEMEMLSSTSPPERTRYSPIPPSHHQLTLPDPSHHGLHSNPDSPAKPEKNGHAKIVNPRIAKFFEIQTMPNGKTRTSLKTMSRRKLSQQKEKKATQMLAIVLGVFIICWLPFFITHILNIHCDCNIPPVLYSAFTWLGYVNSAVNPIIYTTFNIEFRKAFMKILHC
Source text: (§1) All these procedures were described by us previously.

cloned rat D3 receptors = cloned rat D3 receptors (Rattus norvegicus (Rat), UniProt P19020); test: [3H]spiroperidol competition binding, rat D3 receptors in HEK-293 cells; settings: rat D3 in HEK-293 cells; values of Table 3
Sequence of cloned rat D3 receptors (P19020 whole entry): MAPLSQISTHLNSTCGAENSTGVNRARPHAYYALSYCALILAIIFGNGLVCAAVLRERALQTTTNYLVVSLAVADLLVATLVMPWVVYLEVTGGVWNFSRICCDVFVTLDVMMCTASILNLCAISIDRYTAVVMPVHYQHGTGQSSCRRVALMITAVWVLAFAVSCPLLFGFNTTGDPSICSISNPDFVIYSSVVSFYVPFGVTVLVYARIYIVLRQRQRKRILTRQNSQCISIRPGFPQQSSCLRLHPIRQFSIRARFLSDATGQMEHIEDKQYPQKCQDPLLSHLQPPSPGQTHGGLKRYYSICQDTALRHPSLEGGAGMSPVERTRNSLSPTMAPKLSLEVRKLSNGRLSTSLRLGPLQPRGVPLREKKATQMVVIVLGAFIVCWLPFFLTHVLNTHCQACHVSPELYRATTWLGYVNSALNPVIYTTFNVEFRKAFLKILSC
Experimental: A well established radioligand competition assay was carried out to evaluate binding affinity of the test compounds and were compared with that of the reference agent (S)-5-OH-DPAT (Table 3). Binding affinity to rat DA D2 and D3 receptors expressed in HEK-293 cells was determined as described by us previously. […] This indicated highest tolerance of the 4-substituted carbazole derivative for interaction with the D2 and D3 receptors.
as §1

human DA D2 receptors = human DA D2 receptors (Homo sapiens (Human), UniProt P14416); test: [35S]GTPγS binding stimulation, human D2 receptors in CHO cells; format: biochemical; settings: for Emax: compared with maximum stimulation by full agonist DA
Sequence of human DA D2 receptors (P14416 whole entry): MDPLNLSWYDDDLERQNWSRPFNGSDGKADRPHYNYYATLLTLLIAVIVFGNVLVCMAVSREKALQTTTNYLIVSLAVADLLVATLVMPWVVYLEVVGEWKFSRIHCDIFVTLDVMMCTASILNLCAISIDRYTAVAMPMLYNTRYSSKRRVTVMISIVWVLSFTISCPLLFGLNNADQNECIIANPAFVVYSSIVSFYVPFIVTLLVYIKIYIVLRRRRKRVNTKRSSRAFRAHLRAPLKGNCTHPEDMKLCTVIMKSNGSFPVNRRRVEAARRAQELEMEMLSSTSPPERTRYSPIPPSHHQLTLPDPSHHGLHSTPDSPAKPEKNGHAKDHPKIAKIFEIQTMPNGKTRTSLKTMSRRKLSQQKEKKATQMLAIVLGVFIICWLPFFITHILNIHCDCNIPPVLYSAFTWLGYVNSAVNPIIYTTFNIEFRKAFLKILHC

PC12 cells [1] = test: MTT cell viability, compounds alone; format: cell-based, rat
Experimental: To investigate the neuroprotection property of the selected target molecules (−)-91b, (−)-95a and (−)-95c against 6-OHDA-induced cytotoxicity, we used dopaminergic rat adrenal Pheochromocytoma PC12 cells. As reported above, treatment of PC12 cells with 6-OHDA at 75 μM for 24 h produced ˜50% loss in cells viability and this concentration was used in subsequent experiments. […] However, (−)-95a produced some incremental toxicity starting at 20 μM dose (FIG. 4B). The potential neuroprotective effects of (−)-91b, (−)-95a and (−)-95c against 6-OHDA-induced toxicity were evaluated next. […] At those concentration both drugs increased cell survival by ˜20% compared to 6-OHDA (75 μM) treated alone (FIGS. 4D and 4F), indicating neuroprotective effect of these drugs. […] This could be due to the fact that the compound by itself produced toxicity to the cells at doses ≥20 μM and the presence of 6-OHDA enhanced the toxicity (FIG. 4B).
PC12 cells (ATCC CRL1721.1, Manassas, Va., USA), a rat adrenal pheochromocytoma cell line, were cultured in T-75 flasks (Greiner Bio One, Frickenhausen, Germany) and maintained in RPMI 1640 medium supplemented with 10% heat inactivated horse serum, 5% fetal bovine serum, 100 U/ml penicillin, and 100 μg/mL streptomycin at 37° C. in 95% air/5% CO2. Stock solutions of (−)-91b, (−)-95a, (−)-95c, and 6-hydroxydopamine (6-OHDA) were prepared in dimethylsulfoxide (DMSO) and aliquots were stored at −20° C. and −80° C., respectively. […]
PC12 cells were plated at 17000 cells/well density in 100 μL of media in 96-well plates and incubated at 37° C. under 5% CO2 atmosphere for 24 h. […] The absorbance was measured on a microplate reader (Biotek Epoch, Winooski, Vt., USA) at 570 nm with background correction performed at 690 nm. Data from at least three experiments were analyzed using GraphPad software (version 6, San Diego, Calif., USA). Cell viability was defined as […] compared to untreated controls.

α-syn = α-syn (Homo sapiens (Human), UniProt P37840); test: Thioflavin T assay of α-syn aggregation seeded with 0.5% PFFs; format: biochemical; settings: 172.9 μM compound, 30D, 37° C., no agitation
Experimental: The α-syn assay was carried out by following the procedures developed by us earlier. The compounds (−)-91b (D636) and (−)-95a (D653) were incubated with α-syn seeded with 0.5% PFFs for a period of 30D at 37° C. without agitation. […] Both (−)-91b and (−)-95a lead to a significant decrease in the ThT fluorescence (p<0.0001) when compared to α-syn seeded with 0.5% PFFs alone at 30D (FIG. 5A).
The experimental conditions were followed as described in our earlier publication. Briefly, α-syn fibrils were formed by incubating purified α-syn at a concentration of 5 mg/mL at 37° C. under constant agitation at 1000 rpm in a Thermomix R shaker (Eppendorf, Hamburg, Germany) for a period of 5 days. These fibrils at a concentration of 0.5% were used to seed the aggregation of α-syn at 1.25 mg/ml (86.45 μM) with or without compounds D636 or D653 at a concentration of 172.9 μM without agitation at 37° C. for a period of 30 days. Samples were collected at 0D and 30D. Thioflavin T (ThT) assay was performed using these samples as described previously to evaluate the extent of aggregation.

PC12 cells [2] = test: MTT viability of PC12 cells treated with seeded α-syn aggregates; format: cell-based, rat; settings: 30D samples, 24 h treatment, compared to control (seeded α-syn alone 37%)
Experimental: When PC12 cells were treated with the aggregates formed by 0.5% PFFs seeding at 30D, it was observed that the viability went down to 37% when compared to control. […] The viability values of PC12 cells when treated with α-syn seeded samples in the presence of (−)-91b and (−)-95a were 71% and 72% at 30D when compared to control (FIG. 5B).
Further, the cytotoxicity of the aggregates formed was evaluated in PC12 cells. Briefly, PC12 cells were treated with α-syn aggregates such that its concentration is 10 μM. 24 h following treatments, viability was measured by MTT assay as described previously.

[3] = system: reserpine-induced hypolocomotion in rats; test: Reversal of reserpine-induced hypolocomotion in rats; settings: 10 μMol/kg, ip; for duration of locomotor activation: locomotion monitored for 6 h; for reversal of reserpine-induced akinesia / hypolocomotion (horizontal activity): reserpine 5 mg/kg sc, 18 h pretreatment, rats
Experimental: In this model depletion of catecholamines by reserpine results in catalepsy in rats.
The following commercially available drug was used in the experiment: reserpine hydrochloride (Alfa Aesar). […] The compounds for this study were administered in a volume of 0.1-0.2 mL for subcutaneous administration and 0.5-0.7 ml for interaperitoneal administration into each rat.
In rodent studies, animals were male and female Sprague-Dawley rats from Harlan (Indianapolis, Ind.) weighing 220-225 g unless otherwise specified. Animals were maintained in sawdust-lined cages in a temperature and humidity controlled environment at 22±1° C. and 60±5% humidity, respectively. A 12 h light/dark cycle was maintained, with lights on from 6:00 a.m. to 6:00 p.m. They were group-housed with unrestricted access to food and water. All experiments were performed during the light component.
Reserpine (5.0 mg/kg, sc) was administered 18 h before the injection of drug or vehicle. The rats were placed individually in the chambers for 1 h for acclimatization before administration of the test drugs or vehicle. Immediately after administration of drug or vehicle, animals were individually placed in Opto-Varimex 4 animal activity monitor chamber (Columbus Instruments, Ohio, USA) to start measuring locomotor activity. Locomotion was monitored for 6 h. […] The data were presented as horizontal activity (HACTV). […] The data were analyzed by one-way analysis of variance (ANOVA) followed by Dunnett's post hoc test.

SMILES | Ki (cloned rat D2L receptors) [nM] | D2/D3 (cloned rat D2L receptors) | Ki (cloned rat D3 receptors) [nM] | EC50 (human DA D2 receptors; CHO cells, read-out: EC50 (GTPγS), D2) [nM] | Emax (human DA D2 receptors) [%] | cell viability, compound alone (PC12 cells [1]; 0.01-30 μM, compared to untreated controls) | decrease in ThT fluorescence compared to seeded α-syn (α-syn) [fold] | viability of PC12 cells treated with α-syn seeded samples formed with compound (PC12 cells [2]) [%] | duration of locomotor activation [3] | reversal of reserpine-induced akinesia / hypolocomotion (horizontal activity) [3] | EC50 (human DA D2 receptors) [nM] | dose at which compound alone produced toxicity (PC12 cells [1]; compound alone) [µM]
CCCN(CCN1CCN(c2ccc3[nH]c4ccccc4c3c2)CC1)[C@H]1CCc2nc(N)sc2C1 [(−)-91b, (S)—N^6-(2-(4-(9H-carbazol-3-yl)piperazin-1-yl)ethyl)-N^6-propyl-4,5,6,7-tetrahydrobenzo[d]thiazole-2,6-diamine] | 135 | 35 | 3.8 | 48.7 | 87 to 93 | no cells loss | 16 | 71 | significant enhancement of locomotion for the duration of the study of 6 h | significantly reversed akinesia; also recorded: significantly different | – | –
CCCN(CCN1CCN(c2ccc3c(c2)[nH]c2ccccc23)CC1)[C@H]1CCc2c(O)cccc2C1 [Compound (−)-95a, (S)-6-((2-(4-(9H-carbazol-2-yl)piperazin-1-yl)ethyl)(propyl)amino)-5,6,7,8-tetrahydronaphthalen-1-ol] | 71.2 | 177 | 0.4 | – | 85 to 92 | – | 3 | 72 | significant enhancement of locomotion for the duration of the study of 6 h | significantly reversed akinesia; also recorded: highest in vivo activity; also recorded: significantly different | 0.87 | ≥ 20
